# Experimental data published in patent publication US8952034B2, “Fused heterocyclic compounds as ion channel modulators” (Gilead Sciences, Inc., priority 2009, dated 2015).
# Target: wild-type human cardiac sodium channel, hNav1.5 (Homo sapiens, UniProt Q14524)
# Assay: Late INa screening assay (automated whole cell patch clamp, PatchXpress)
# Type: cell-based
# Settings: HEK293 cells expressing hNav1.5, late INa generated with 10 μM Tefluthrin (or 50 nM ATX II); for inhibition at 10 µM: compound at 10 μM, read-out: LateINa_10 uM (percent block of late INa); for inhibition at 1 µM: compound at 1 μM, read-out: LateINa_1 uM (percent block of late INa)
# Description: The late sodium current (Late INa) and peak sodium current (Peak INa) assays are performed on an automated electrophysiology platform, PatchXpress 7000A (MDS Analytical Technologies, Sunnyvale, Calif.), which uses the whole cell patch clamp technique to measure currents through the cell membrane of up to 16 cells at a time. The assay uses an HEK293 (human embryonic kidney) cell line heterologously expressing the wild-type human cardiac sodium channel, hNav1.5, purchased from Millipore (Billerica, Mass.). No beta subunits were coexpressed with the Na channel alpha subunit. Cells are maintained with standard tissue culture procedures and stable channel expression is maintained with 400 μg/ml Geneticin in the culture medium. […] Experiments are carried out at 24-27° C.
# For both the Late INa and Peak INa assays, series resistance compensation is set to 50% and whole-cell compensation is performed automatically. […] Currents through open sodium channels are automatically recorded and stored in the DataXpress2 database (MDS Analytical Technologies, Sunnyvale, Calif.). Analysis is performed using DataXpress2 analysis software and data are compiled in Excel.
# Compound stocks are routinely made in glass vials to 10 mM in dimethyl sulfoxide (DMSO). In some cases, when compounds are not soluble in DMSO, they are made in 100% ethanol. Stocks are sonicated as necessary. The extracellular solution for screening Late INa is composed of: 140 mM NaCl, 4 mM KCl, 1.8 mM CaCl2, 0.75 mM MgCl2, and 5 mM HEPES with pH adjusted to 7.4 using NaOH. The extracellular solution for screening Peak INa is composed of: 20 mM NaCl, 120 mM N-methyl-D glucamine, 4 mM KCl, 1.8 mM CaCl2, 0.75 mM MgCl2, and 5 mM HEPES with pH adjusted to 7.4 using HCl. The intracellular solution used to perfuse the inside of the cells for both the Late INa and Peak INa assays contains: 120 mM CsF, 20 mM CsCl, 5 mM EGTA, 5 mM HEPES and pH adjusted to 7.4 with CsOH. […] The 0Na extracellular solution used at the end of each experiment for the Late INa and Peak INa assays to measure baseline current contains: 140 mM N-methyl-D-glucamine; 4 mM KCl; 1.8 mM CaCl2; 0.75 mM MgCl2; 5 mM HEPES and pH was adjusted to 7.4 with HCl.
# For the Late INa assay, sodium channels are activated every 10 seconds (0.1 Hz) by depolarizing the cell membrane to −20 mV for 250 milliseconds (ms) from a holding potential of −120 mV. In response to a −20 mV voltage step, typical Nav1.5 sodium currents activate rapidly to a peak negative current and then inactivate nearly completely within […].
# All compounds are tested to determine their activity in blocking the late sodium current. Late INa current is generated by adding 10 μM Tefluthrin (pyrethroid) to the extracellular solution while recording Na currents For some experiments, 50 nM ATX II (sea anemone toxin), another late INa activator, was used to generate the late component. […] After establishing the whole cell recording configuration, late INa activators are added to each well 4 times over a 16-17 minute period so that the late component of the Na current reaches a stable value. […] Measurements are made at the end of exposure to the third compound addition and values are normalized to the current level when all Na^+ is removed from the extracellular solution after two additions of 0Na-ECF. Results are reported as percent block of late INa
# Chain of wild-type human cardiac sodium channel, hNav1.5 (Q14524 whole entry): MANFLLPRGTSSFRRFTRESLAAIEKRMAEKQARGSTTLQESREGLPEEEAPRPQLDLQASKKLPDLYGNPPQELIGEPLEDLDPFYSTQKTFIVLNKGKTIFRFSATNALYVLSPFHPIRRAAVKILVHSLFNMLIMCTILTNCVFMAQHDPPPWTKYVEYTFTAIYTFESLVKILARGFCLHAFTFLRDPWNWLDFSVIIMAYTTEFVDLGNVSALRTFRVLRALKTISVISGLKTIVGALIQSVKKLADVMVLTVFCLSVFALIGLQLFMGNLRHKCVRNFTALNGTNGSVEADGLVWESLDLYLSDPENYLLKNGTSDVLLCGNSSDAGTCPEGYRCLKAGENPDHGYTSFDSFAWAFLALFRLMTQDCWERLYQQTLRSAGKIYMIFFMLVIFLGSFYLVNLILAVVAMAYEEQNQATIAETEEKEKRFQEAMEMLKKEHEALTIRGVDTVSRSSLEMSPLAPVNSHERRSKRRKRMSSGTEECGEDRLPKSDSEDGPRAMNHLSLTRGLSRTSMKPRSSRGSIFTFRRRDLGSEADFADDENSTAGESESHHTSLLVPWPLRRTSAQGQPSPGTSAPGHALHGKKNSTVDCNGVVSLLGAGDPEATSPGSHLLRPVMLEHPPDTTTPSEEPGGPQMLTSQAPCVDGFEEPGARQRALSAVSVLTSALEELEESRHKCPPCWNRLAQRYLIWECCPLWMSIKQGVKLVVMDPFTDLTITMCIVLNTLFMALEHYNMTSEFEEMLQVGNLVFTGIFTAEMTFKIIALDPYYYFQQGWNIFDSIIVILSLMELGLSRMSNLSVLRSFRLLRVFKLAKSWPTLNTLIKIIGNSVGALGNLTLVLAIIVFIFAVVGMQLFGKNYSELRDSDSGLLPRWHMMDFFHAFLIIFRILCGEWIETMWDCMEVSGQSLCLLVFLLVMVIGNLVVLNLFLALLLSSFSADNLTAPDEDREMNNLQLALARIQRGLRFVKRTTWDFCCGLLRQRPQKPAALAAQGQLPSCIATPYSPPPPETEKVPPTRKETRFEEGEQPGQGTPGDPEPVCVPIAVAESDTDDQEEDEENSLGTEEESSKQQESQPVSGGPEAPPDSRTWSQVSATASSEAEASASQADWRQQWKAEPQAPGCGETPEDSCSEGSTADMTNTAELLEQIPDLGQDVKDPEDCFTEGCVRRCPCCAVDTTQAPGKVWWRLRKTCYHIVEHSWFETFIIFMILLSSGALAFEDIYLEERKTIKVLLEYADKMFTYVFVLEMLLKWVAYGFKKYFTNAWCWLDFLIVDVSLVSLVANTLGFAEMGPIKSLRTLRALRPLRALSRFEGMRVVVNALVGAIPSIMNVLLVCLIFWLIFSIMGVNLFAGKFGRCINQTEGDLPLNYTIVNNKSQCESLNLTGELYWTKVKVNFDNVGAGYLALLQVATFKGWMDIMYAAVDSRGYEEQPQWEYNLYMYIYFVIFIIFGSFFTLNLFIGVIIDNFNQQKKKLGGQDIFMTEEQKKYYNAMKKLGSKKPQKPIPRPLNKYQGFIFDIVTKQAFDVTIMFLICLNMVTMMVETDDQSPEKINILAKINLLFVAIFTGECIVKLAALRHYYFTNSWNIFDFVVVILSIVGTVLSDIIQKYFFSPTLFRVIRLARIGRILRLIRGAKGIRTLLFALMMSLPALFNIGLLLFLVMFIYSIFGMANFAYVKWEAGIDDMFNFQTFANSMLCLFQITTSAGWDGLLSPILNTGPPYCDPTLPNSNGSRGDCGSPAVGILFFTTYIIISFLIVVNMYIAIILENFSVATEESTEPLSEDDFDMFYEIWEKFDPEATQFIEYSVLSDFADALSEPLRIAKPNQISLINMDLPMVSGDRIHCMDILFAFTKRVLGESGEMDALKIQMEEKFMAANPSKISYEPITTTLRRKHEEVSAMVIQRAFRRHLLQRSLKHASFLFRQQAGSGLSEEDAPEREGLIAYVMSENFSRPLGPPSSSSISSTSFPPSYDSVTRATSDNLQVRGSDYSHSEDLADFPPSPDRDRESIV
Compound,inhibition at 10 µM [%],inhibition at 1 µM [%]
"COc1ccc(-c2ccc3nnc(-c4ccc(C#N)cc4)n3n2)cc1 [BHN-44, 4-[6-(4-methoxyphenyl)[1,2,4]triazolo[4,3-b]pyridazin-3-yl]benzonitrile]",15,–
"Cc1ccc(COCc2nnc3ccc(-c4ccc(OC(F)(F)F)cc4)cn23)nc1 [BHN-252, 3-{[(5-methylpyridin-2-yl)methoxy]methyl}-6-[4-(trifluoromethoxy)phenyl][1,2,4]triazolo[4,3-a]pyridine]",–,20.6
"FC(F)(F)c1nnc2ccc(-c3ccc(OCC4CC4)cc3)cn12 [BHN-151, 6-[4-(cyclopropylmethoxy)phenyl]-3-(trifluoromethyl)[1,2,4]triazolo[4,3-a]pyridine]",–,43.1
"Cc1cc(OC(F)(F)F)ccc1-c1ccc2nnc(C(F)(F)F)n2n1 [BHN-26, 6-[2-methyl-4-(trifluoromethoxy)phenyl]-3-(trifluoromethyl)[1,2,4]triazolo[4,3-b]pyridazine]",75.3,64.4
"CC(C)Cc1nc(COC(F)(F)c2nnc3ccc(-c4ccc(OC(F)(F)F)cc4)cn23)no1 [BHN-207, 3-(difluoro{[5-(2-methylpropyl)-1,2,4-oxadiazol-3-yl]methoxy}methyl)-6-[4-(trifluoromethoxy)phenyl][1,2,4]triazolo[4,3-a]pyridine]",–,60.3
"FC(F)(F)Oc1ccc(-c2ccc3nnc(C(F)(F)OCc4cccc5ncccc45)n3c2)cc1 [BHN-281, 5-[(difluoro{6-[4-(trifluoromethoxy)phenyl][1,2,4]triazolo[4,3-a]pyridin-3-yl}methoxy)methyl]quinoline]",–,53.9
"FC(F)(F)Oc1ccc(-c2ccc3nnc(Sc4ccccc4)n3c2)cc1 [BHN-170, 3-(phenylsulfanyl)-6-[4-(trifluoromethoxy)phenyl][1,2,4]triazolo[4,3-a]pyridine]",–,66.2
"Nc1cc(-c2ccc3nnc(C(F)(F)F)n3c2)ccc1OC(F)(F)F [BHN-134, 2-(trifluoromethoxy)-5-[3-(trifluoromethyl)[1,2,4]triazolo[4,3-a]pyridin-6-yl]aniline]",–,27.8
"NS(=O)(=O)c1ccc(-c2nnc3ccc(-c4ccc(OC(F)(F)F)cc4)cn23)cc1 [BHN-73, 4-{6-[4-(trifluoromethoxy)phenyl][1,2,4]triazolo[4,3-a]pyridin-3-yl}benzenesulfonamide]",17.5,–
"FC(F)(F)COc1ccc(-c2ccc3cnc(C(F)(F)F)n3c2)cc1 [BHN-28, 6-[4-(2,2,2-trifluoroethoxy)phenyl]-3-(trifluoromethyl)imidazo[1,5-a]pyridine]",78.3,46.1
"CN(C)Cc1cc(-c2ccc3nnc(C(F)(F)F)n3c2)ccc1OC(F)(F)F [BHN-83, N,N-dimethyl-1-{2-(trifluoromethoxy)-5-[3-(trifluoromethyl)[1,2,4]triazolo[4,3-a]pyridin-6-yl]phenyl}methanamine]",29.8,–
"Cc1cc(OC(F)(F)F)ccc1-c1cc(N)c2nnc(C)n2c1 [BHN-70, 3-methyl-6-[2-methyl-4-(trifluoromethoxy)phenyl][1,2,4]triazolo[4,3-a]pyridin-8-amine]",40.4,–
"CC(C)(C)c1nnc2ccc(-c3ccc(Oc4ccccc4)cc3)nn12 [BHN-35, 3-tert-butyl-6-(4-phenoxyphenyl)[1,2,4]triazolo[4,3-b]pyridazine]",68.6,–
"CC(C)S(=O)(=O)c1ccc(-c2ccc3nnc(C(F)(F)F)n3c2)cc1 [BHN-68, 6-[4-(propan-2-ylsulfonyl)phenyl]-3-(trifluoromethyl)[1,2,4]triazolo[4,3-a]pyridine]",22,–
"FC(F)(F)Oc1ccc(-c2ccc3nnc(C(F)(F)OCc4noc(C5CCC5)n4)n3c2)cc1 [BHN-259, 3-{[(5-cyclobutyl-1,2,4-oxadiazol-3-yl)methoxy](difluoro)methyl}-6-[4-(trifluoromethoxy)phenyl][1,2,4]triazolo[4,3-a]pyridine]",–,71.6
"CN1CCN(Cc2cc(-c3ccc4nnc(C(F)(F)F)n4c3)ccc2OC(F)(F)F)CC1 [BHN-81, 6-{3-[(4-methylpiperazin-1-yl)methyl]-4-(trifluoromethoxy)phenyl}-3-(trifluoromethyl)[1,2,4]triazolo[4,3-a]pyridine]",30.3,–
"CC(OCc1nnc2ccc(-c3ccc(OC(F)(F)F)cc3)cn12)c1ccccc1 (centres unmarked) [BHN-246, 3-[(1-phenylethoxy)methyl]-6-[4-(trifluoromethoxy)phenyl][1,2,4]triazolo[4,3-a]pyridine]",–,85.8
"Cc1c(-c2ccc(C(F)(F)F)cc2)ccc2ncnn12 [BHN-350, 5-methyl-6-[4-(trifluoromethyl)phenyl][1,2,4]triazolo[1,5-a]pyridine]",44.5,–
"CC(OC(F)(F)c1nnc2ccc(-c3ccc(OC(F)(F)F)cc3)cn12)c1ccc(Cl)cc1Cl (centres unmarked) [BHN-247, 3-{[1-(2,4-dichlorophenyl)ethoxy](difluoro)methyl}-6-[4-(trifluoromethoxy)phenyl][1,2,4]triazolo[4,3-a]pyridine]",–,74.1
"FC(F)(F)Oc1ccc(-c2ccc3nnc(C(F)(F)OCC4CC4)n3c2)cc1 [BHN-214, 3-[(cyclopropylmethoxy)(difluoro)methyl]-6-[4-(trifluoromethoxy)phenyl][1,2,4]triazolo[4,3-a]pyridine]",–,80.8
"COc1ccc(-c2ccc3cnc(C(F)(F)F)n3c2)cc1 [BHN-30, 6-(4-methoxyphenyl)-3-(trifluoromethyl)imidazo[1,5-a]pyridine]",77.3,24.6
"Cc1cc(OC(F)(F)F)ccc1-c1ccc2nnc(C(C)C)n2n1 [BHN-33, 6-[2-methyl-4-(trifluoromethoxy)phenyl]-3-(propan-2-yl)[1,2,4]triazolo[4,3-b]pyridazine]",75.9,59.2
"FC(F)(F)Oc1ccc(-c2ccc3nnc(Oc4ccccc4)n3c2)cc1 [BHN-143, 3-phenoxy-6-[4-(trifluoromethoxy)phenyl][1,2,4]triazolo[4,3-a]pyridine]",–,81.4
"OCC(F)(F)c1nnc2ccc(C#Cc3ccc(C(F)(F)F)cc3)cn12 [BHN-198, 2,2-difluoro-2-(6-{[4-(trifluoromethyl)phenyl]ethynyl}[1,2,4]triazolo[4,3-a]pyridin-3-yl)ethanol]",–,17.4
"FC(F)(F)c1nnc2ccc(-c3ccc(OC4CC4)nc3)cn12 [BHN-180, 6-[6-(cyclopropyloxy)pyridin-3-yl]-3-(trifluoromethyl)[1,2,4]triazolo[4,3-a]pyridine]",–,21.1
"Cc1cc2nnc(C(F)(F)F)n2cc1-c1cccc(OC(F)(F)F)c1 [BHN-17, 7-methyl-6-[3-(trifluoromethoxy)phenyl]-3-(trifluoromethyl)[1,2,4]triazolo[4,3-a]pyridine]",25.3,–
"Cn1nc(COC(F)(F)c2nnc3ccc(-c4ccc(OC(F)(F)F)cc4)cn23)cc1-c1ccccc1 [BHN-224, 3-{difluoro[(1-methyl-5-phenyl-1H-pyrazol-3-yl)methoxy]methyl}-6-[4-(trifluoromethoxy)phenyl][1,2,4]triazolo[4,3-a]pyridine]",–,24.2
"O=C(NCC(F)(F)c1nnc2ccc(-c3ccc(OC(F)(F)F)cc3)cn12)Nc1ccccc1 [BHN-263, 1-(2,2-difluoro-2-{6-[4-(trifluoromethoxy)phenyl][1,2,4]triazolo[4,3-a]pyridin-3-yl}ethyl)-3-phenylurea]",–,22.6
